Columns and labels:
[1] = system: isolated neutrophils (opsonized zymosan-stimulated oxidative burst); assay: Measurement of chemiluminescence of isolated neutrophils (neutrophil burst, Lucigenin); type: cell-based; details: for IC50 / Neutrophil Burst IC50 (Lucigenin): 14 min, opsonized zymosan, lucigenin, 37° C.
Description: Whole blood (150 ml) was anticoagulated with Acid Citrate Dextrose (ACD) using a ratio of 1:5 ACD to blood.
All steps are to be performed using polypropylene plastic ware.
a. Whole blood (60 ml) was added to each of three 100 ml polypropylene graduated cylinders containing 30 ml of […]. The cylinders were covered securely with Parafilm. The blood was allowed to sediment for approximately 1 hour at room temperature.
b. The turbid straw-colored layer was harvested from the top of the cylinders into 50 ml conical polypropylene tubes. The white blood cells were pelleted by centrifugation at 240×g (Sorvall at 1200 rpm) for 12 min. at 4° C. with the brake on low.
c. The supernatant was removed by aspiration and the pooled pellet resuspended in 4-50 ml cold PBS (w/o Ca, Mg). It was then centrifuged at 240×g (Sorvall at 1200 rpm) for 6 min. at 4° C. with the brake on high.
a. The supernatant was aspirated and the pellet resuspended in 12 ml of cold cell culture-grade water. The pellet was titrated gently with a pipet for exactly 30 seconds then 4 ml of cold 0.6 M KCl was added. It was then QSed to 50 ml with cold PBS (w/o Ca, Mg) and centrifuged at 300×g (Sorvall TY 6000D at 1400 rpm) for 6 min. at 4° C. with the brake on high.
b. Step 2.a. was repeated once more.
a. The supernatant was aspirated and the cells were resuspended in 2.5 ml cold PBS (w/o Ca, Mg). The cell suspension was carefully layered over 3 ml Ficoll-Hypaque in a 15 ml polypropylene conical tube. It was then centrifuged at 400×g (Sorvall at 1900 rpm) for 30 min. at 4° C. with the brake on low.
b. Aspiration occurred down to the neutrophil pellet. The pellet was resuspended fin cold PBS (w/o Ca, Mg) and transferred to a 50 ml conical tube. It was then QSed to 50 ml with cold PBS (w/o Ca, Mg) and centrifuged at 300×g (Sorvall at 1400 rpm) for 6 min. at 4° C. with the brake on high.
d. The supernatant was aspirated and the pellet resuspended in 50 ml cold PBS (w/o Ca, Mg) and centrifuged at 300×g (Sorvall at 1400 rpm) for 6 min. with the brake on high.
e. The supernatant was aspirated and the neutrophil pellet resuspended in 4.0 ml cold PBS (w/o Ca, Mg). It was kept on ice. Trypan blue (10 μl) was diluted (1:40) and the cells were counted using a hemacytometer. The cell number and viability by Trypan […] exclusion were determined and the results recorded. The cells were diluted to 5.0×10^6 cells/ml with cold PBS-G (with Ca, Mg) prior to plating for the assay.
2. […] The suspension was centrifuged and the particles resuspended in 7 ml of PBS-G (with Ca, Mg)(18 mg/ml). It was stored on ice until used (briefly vortexed prior to pipetting).
4. PBS-G (10 μl) (with Ca, Mg) was added to the wells in a white 96 well plate.
6. The compound dilutions (10 μl) were added to the appropriate wells.
7. The cell prep was diluted to 5.0×10^6 cells/ml with PBS-G (with Ca, Mg) in a separate multipipette trough.
8. The neutrophil suspension (20 μl) was added to the appropriate wells.
9. The plate was incubated at 37° C. for three minutes.
10. Zymosan (10 μl of 18 mg/ml) was added to the appropriate wells.
11. The plate was read on the luminometer (Labsystems Luminoskan, Needham Heights, Mass.) for 14 min. at 37° C. on the kinetic mode and the results recorded using the software DeltaSoft.
12. The plate data was exported into Excel to determine percent of control and derive the means and standard deviations for the data. The IC50 was determined graphically from the data and plotted using SigmaPlot. For cases where one concentration (50 μM) was tested, percent inhibition was compared to that seen with 50 μM apocynin.
13. The results are set forth below in Table 1 as "Neutrophil Burst IC50 (Lucigenin)". The results for 50 μM inhibition in the single assay are reported as "Neutrophil Burst Screen Value (% @ 50 μM)".

[2] = molecular target: T1, Xanthine oxidase (Bos taurus, UniProt P80457); assay: Xanthine oxidase assay (superoxide by hypoxanthine/xanthine oxidase, Lucigenin); type: biochemical; details: hypoxanthine 150 μM, buttermilk xanthine oxidase, 37° C.; for IC50: read-out: Xanthine Oxidase Inhibition IC50 (Integral)
T1 construct: purchased Sigma x-1875; host or cells: buttermilk

[3] = system: Jurkat cells; assay: Cytotoxicity assay employing Jurkat cells (MTT); type: cell-based; details: Jurkat clone E6-1, MTT, 37° C. overnight
Description: This Assay was performed as set forth in Hansen et al., Journal of Immunological Methods, 119:203-210 (19930; Mosmann, Journal of Immunological Methods, 65:55-63 (1983); and Slater et al., Biochem. Ciophys. Acta, 77:383 (1963); except as noted below.
Compounds from the following Examples were tested for cytotoxicity using MTT (i.e., 3-[4,5-Dimethylthiazol-2-yl]-2,5-diphenyltetrazolium bromide; Thiazolyl Blue (Sigma, St. Louis, Mo.)).
MTT was dissolved in basal culture media at a concentration of 5 mg/ml. If necessary, it was briefly warmed at 37° C. to fully dissolve, passed through a sterile filter, and aliquoted and stored at -20° C. until use.
The Extraction Buffer used was a solution composed of 20% SDS, 2.5% Acetic Acid (80% 6 stock solution), 2.5% 1N Hcl, 50% Dimethylformamide/50% dissolved in distilled water, SDS was dissolved into buffer components with gentle heating and stirring and the resultant solution was filtered and stored until use.
The MTT solution was added in an amount equal to 10% of the culture volume to each well in a 96-well plate containing 100,000 Jurkat cells/well.
The wells were then incubated for 0.5 to 2 hours in standard culture conditions. A volume of extraction buffer equal to the culture volume was added. The 96-well plate was then sealed. The formazan crystals were allowed to extract at 37° C. for four hours. The plate was read on a spectrophotometer [Spectramax 250, Molecular Devices, Sunnyvale, Calif.] at an absorbance wavelength of 560 nm. (The background absorbance measured at 650 nm was subtracted from the value measured at 560 nm.)
The Jurkat cells (Jurkat clone E6-1) were grown using standard conditions supplied by ATCC (American Type Culture Collection--Rockville, Md.).
The compounds diluted in medium (RPMI 1640 plus 10% fetal bovine serum) stock solution of 100 μM, then this stock solution was further diluted 3-fold before testing in the instant assay.
2-Hydroxy-3-methoxy-E-nitrostyrene tested at 100 μM as death control cells, incubated under the above conditions at 37° C. overnight.
The Extraction Buffer (100 μl) was added to each well and the resultant suspension was incubated 4 hours at 37° C.
The results from this procedure are set forth above in Table 1 in the column marked "Cytotox (MTT/Jurkat)". […] Toxicity was rated "3" if dead cells and >50% reduction in MTT absorbance at 1 μM test compound.

T1 sequence (P80457 whole entry): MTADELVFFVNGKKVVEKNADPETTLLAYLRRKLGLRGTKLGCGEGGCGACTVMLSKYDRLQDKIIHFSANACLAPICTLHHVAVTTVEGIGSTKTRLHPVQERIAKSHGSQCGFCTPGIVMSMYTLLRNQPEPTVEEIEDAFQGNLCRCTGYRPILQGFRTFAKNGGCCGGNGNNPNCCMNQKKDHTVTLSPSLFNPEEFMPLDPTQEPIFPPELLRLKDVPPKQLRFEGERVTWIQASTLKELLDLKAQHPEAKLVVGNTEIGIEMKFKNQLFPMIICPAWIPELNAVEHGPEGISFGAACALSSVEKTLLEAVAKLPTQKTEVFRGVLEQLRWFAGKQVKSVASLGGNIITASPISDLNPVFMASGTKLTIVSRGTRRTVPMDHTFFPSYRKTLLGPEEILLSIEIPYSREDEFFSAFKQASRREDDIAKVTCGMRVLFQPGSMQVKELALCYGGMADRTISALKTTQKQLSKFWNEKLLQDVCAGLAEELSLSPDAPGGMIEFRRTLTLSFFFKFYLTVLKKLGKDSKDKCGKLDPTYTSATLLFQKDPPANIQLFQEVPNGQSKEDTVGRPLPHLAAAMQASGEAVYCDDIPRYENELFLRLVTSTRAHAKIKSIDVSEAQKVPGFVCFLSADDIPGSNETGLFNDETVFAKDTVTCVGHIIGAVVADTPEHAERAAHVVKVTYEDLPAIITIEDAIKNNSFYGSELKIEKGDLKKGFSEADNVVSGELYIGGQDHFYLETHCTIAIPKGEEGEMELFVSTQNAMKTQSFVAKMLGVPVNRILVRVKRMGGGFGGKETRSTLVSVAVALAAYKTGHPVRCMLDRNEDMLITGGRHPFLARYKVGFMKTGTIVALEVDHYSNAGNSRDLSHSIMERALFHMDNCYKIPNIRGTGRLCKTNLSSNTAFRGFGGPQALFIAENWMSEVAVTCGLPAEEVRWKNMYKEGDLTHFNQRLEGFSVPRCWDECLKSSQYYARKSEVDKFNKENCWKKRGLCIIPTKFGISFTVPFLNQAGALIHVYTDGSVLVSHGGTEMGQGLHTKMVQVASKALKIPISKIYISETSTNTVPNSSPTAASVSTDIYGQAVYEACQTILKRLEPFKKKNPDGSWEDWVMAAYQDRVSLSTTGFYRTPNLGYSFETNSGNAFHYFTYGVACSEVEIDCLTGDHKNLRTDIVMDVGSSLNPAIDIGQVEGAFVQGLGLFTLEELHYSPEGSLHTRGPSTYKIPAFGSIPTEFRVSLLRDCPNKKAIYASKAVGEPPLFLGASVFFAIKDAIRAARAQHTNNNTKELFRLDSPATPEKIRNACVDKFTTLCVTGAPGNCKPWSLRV

Row | IC50 [2] | Neutrophil Burst IC50 (Lucigenin) [1] | Xanthine Oxidase Inhibition IC50 (Integral) [2] | SMILES | IC50 ([1]; Neutrophil) | Cytotox (MTT/Jurkat) [3] | further results
1 | 28 µM | – | – | COc1cc(C=Nc2ccc(F)cc2)cc(OC)c1O [Example 19, N-(3,5-Dimethoxy-4-Hydroxybenzylidene)-p-Fluoroaniline] | 13.2 µM | – | –
2 | – | No Effect | – | CCOc1cc(/C=N/N=C/c2ccc(O)c(OCC)c2)ccc1O [Example 8, Bis[3-Ethoxy-4-Hydroxybenzaldehyde]trans,trans-Azine] | – | – | –
3 | – | No Effect | No Effect | C(=N\N=C\c1ccncc1)/c1ccncc1 [Example 15, Bis[Pyridine-4-Carboxaldehyde]trans,trans-Azine] | – | – | –
4 | 14 µM | – | – | COc1cc(C=Nc2ccccc2)cc(OC)c1O [Example 23, N-(3,5-Dimethoxy-4-Hydroxybenzylidene)Aniline] | 5 µM | – | –
5 | 2.1 µM | – | – | COc1cc(C=Nc2nncs2)cc(OC)c1O [Example 21, R-N'-(3,5-Dimethoxy-4-Hydroxybenzylidene)-5-Amino-1,3,4-Thiadiazole] | 8 µM | – | –
6 | 34 µM | – | – | COc1cc(C=Nc2ccc(Br)cc2)cc(OC)c1O [Example 20, N-(3,5-Dimethoxy-4-Hydroxybenzylidene)-p-Bromoaniline] | 9.9 µM | – | –
7 | – | – | – | COc1cc(C=Nc2nccs2)ccc1O [B, 2-N'-(3-methoxy-4-hydroxybenzylidene)-2-amino-1,3-thiazole] | – | – | inhibition at 50 µM ([1]; Neutrophil, percent inhibition at 50 μM, single concentration, read-out: Neutrophil Burst Screen Value (% @ 50 μM)): 49.4%
8 | 16.3 µM | – | – | COc1cc(C=Nc2nncs2)ccc1O [Example 22, 5-N'-(3-Methoxy-4-Hydroxybenzylidene)-5-Amino-1,3,4-Thiadiazole] | 15.5 µM | – | –
9 | – | No Effect | No Effect | COc1ccc(/C=N/N=C/c2ccc(OC)c(O)c2)cc1O [Example 4, Bis[3-Hydroxy-4-Methoxybenzaldehyde]trans,trans-Azine] | – | – | –
10 | – | – | No Effect | COc1cccc(/C=N/N=C/c2cccc(OC)c2)c1 [Example 11, Bis[3-Methoxybenzaldehyde]trans,trans-Azine] | – | – | –
11 | 20 µM | – | – | COc1cc(/C(C)=N/N=C(\C)c2cc(OC)c(O)c(OC)c2)cc(OC)c1O [Example 9, Bis[3,5-Dimethoxy-4-Hydroxyacetophenone]trans,trans-Azine] | 8.7 µM | – | –
12 | – | No Effect | No Effect | COc1cccc(/C=N/N=C/c2cccc(OC)c2OC)c1OC [Example 2, Bis[2,3-Dimethoxybenzaldehyde]trans,trans-Azine] | – | – | –
13 | – | No Effect | No Effect | COc1ccc(/C=N/N=C/c2ccc(OC)c(OC)c2)cc1OC [Example 5, Bis[3,4-Dimethoxybenzaldehyde]trans,trans-Azine] | – | – | –
14 | – | – | – | COc1cc(/C=N/N=C/c2cc(Br)c(O)c(OC)c2)cc(Br)c1O [Example 1, Bis[3-Bromo-4-Hydroxy-5-Methoxybenzaldehyde]trans,trans-Azine] | 38 µM | 0 | –
15 | – | No Effect | No Effect | CC(C)(C)c1cc(/C=N/N=C/c2cc(C(C)(C)C)c(O)c(C(C)(C)C)c2)cc(C(C)(C)C)c1O [Example 14, Bis[3,5-(tert-Butyl)-4-Hydroxybenzaldehyde]trans,trans-Azine] | – | – | –
16 | – | No Effect | No Effect | COc1ccc(/C=N/N=C/c2ccc(OC)cc2O)c(O)c1 [Example 3, Bis[2-Hydroxy-4-Methoxybenzaldehyde]trans,trans-Azine] | – | – | –

Row | SMILES | IC50 [2] | Neutrophil Burst IC50 (Lucigenin) [1] | Xanthine Oxidase Inhibition IC50 (Integral) [2] | IC50 ([1]; Neutrophil) | Cytotox (MTT/Jurkat) [3] | further results
17 | COc1ccc(N=Cc2ccc(O)c(OC)c2)cc1 [Example 17, N-(3-Methoxy-4-Hydroxybenzylidene)-p-Methoxyaniline] | – | – | No Effect | 3.1 µM | 0 | –
18 | COc1ccc(N=Cc2cc(C(C)(C)C)c(O)c(C(C)(C)C)c2)cc1 [Example 16, N-(3,5-di(tert-Butyl)-4-Hydroxybenzylidene)-p-Methoxyaniline] | – | – | No Effect | – | 0 | –
19 | COc1cc(/C=N/N=C/c2ccc(O)cc2)ccc1O [Example 10, N-[4-Hydroxy-3-Methoxybenzaldehyde]-N'-[4-Hydroxybenzaldehyde]trans,trans-Azine] | – | – | No Effect | 8.5 µM | 0 | –
20 | COc1cc(/C(C)=N/N=C(\C)c2ccc(O)c(OC)c2)ccc1O [Example 7, Bis[4-Hydroxy-3-Methoxyacetophenone]trans,trans-Azine] | – | – | No Effect | 33.1 µM | 1 (dead cells and >50% reduction in MTT absorbance were observed at 100 μM of the test compound) | –
21 | COc1ccc(N=Cc2cc(OC)c(O)c(OC)c2)cc1 [Example 18, N-(3,5-Dimethoxy-4-Hydroxybenzylidene)-p-Methoxyaniline] | 32 µM | – | – | 5 µM | 0 | –
22 | Oc1ccc(/C=N/N=C/c2ccc(O)cc2)cc1 [Example 6, Bis[4-Hydroxybenzaldehyde]trans,trans-Azine] | – | – | No Effect | 13.5 µM | 0 | –
23 | COc1cc(/C=N/N=C/c2cc(OC)c(O)c(OC)c2)cc(OC)c1O [D, Bis[4-hydroxy-3,5-dimethoxybenzaldehyde]-trans,trans-azine] | 70 µM | – | – | – | 1 (dead cells and >50% reduction in MTT absorbance were observed at 100 μM of the test compound) | –
